This note sets out measurements from patent publication US7439035B1, “Method of identifying or characterizing a compound that modulates ribonuclease H activity” (McGill University, priority 2001, dated 2008).

For assay [1], the target named is T1, HIV-1 RT associated RNase H (Human immunodeficiency virus type 1 group M subtype B, UniProt P04585).
T1 construct: final concentration of 2.5 nM of the p51/p66 RT heterodimer in the assay; made in house
Nature of the assay: FRET RNase H assay, inhibition of HIV-1 RT associated RNase H. It is filed as biochemical. The following applies: 1.5 nM p51/p66 RT, 100 nM 3'-fluorescein-RNA/5'-DABCYL-DNA substrate, 37° C., 15 min preincubation; read-out: IC50 for BBNH obtained with the FRET assay. How it is done:
Microplate assay protocol for the measurement of RNase H activity using the RNA/DNA hybrid duplex substrate. Reaction assay mixtures contained 5 μl of a stock solution of 2.5 μM RNA/DNA hybrid duplex substrate added to 85 μl of assay buffer (50 mM Tris, pH 8.0, 37° C., containing 60 mM KCl and 2.5 mM MgCl2), prepared in the wells of a 96-well fluorescence microtiter plate, and warmed to 37° C. using the temperature control of the SpectraMax Gemini XS microplate spectrofluorometer (Molecular Devices). Reactions were started by the addition of 5 μl of a solution of recombinant HIV-1 reverse transcriptase (usually providing a final concentration of 2.5 nM of the p51/p66 RT heterodimer in the assay, and mixing using the automatic mixing function of the microplate spectrofluorometer. The reverse transcriptase for use in this assay was prepared as described by Fletcher R S et al, Single step purification of HIV-1 recombinant wild type and mutant reverse transcriptase, Protein Expression and Purification 7:27-32, 1996. The increase in fluorescence signal resulting from the loss of FRET due to the enzymatic hydrolysis of the RNA strand was measured over suitable time intervals (ranging from 3 minutes to 60 minutes), at an excitation wavelength of 490 nm and an emission wavelength of 528 nm, using a cut-off filter of 515 nm. […]

For assay [2], the target named is T1, HIV-1 RT associated RNase H. Nature of the assay: Gel electrophoretic RNase H assay, inhibition of HIV-1 RT associated RNase H. The format is biochemical. Particulars: 1.5 nM p51/p66 RT, 100 nM [32P]-RNA/DNA substrate, 37° C., densitometry of undegraded RNA; read-out: IC50 for BBNH obtained with the gel assay. From the text: The gel electrophoretic assay used 5′-[^32P]-RNA of the sequence 5′-GAU CUG AGC CUG GGA GCU-3′ (SEQ ID NO: 7; identical to that of the FRET RNA, but lacking the 3′-fluorescein), prepared by the transfer of ^32P from [γ-^32P]-ATP in a reaction catalyzed by bacteriophage T4 polynucleotide kinase. This 5′[^32P]-RNA oligonucleotide was annealed to complementary unlabeled DNA of the sequence 5′-AGC TCC CAG GCT CAG ATC-3′ (SEQ ID NO: 8) to form the [^32P]-RNA/DNA hybrid duplex substrate. Aliquots of 100 μl of 50 mM Tris/HCl (pH 8.0, 37° C.), containing 60 mM KCl and 2.5 mM MgCl2, 1.5 nM p51/p66 RT and variable amounts of BBNH inhibitor were added to individual microtubes and incubated at 37° C. for 15 minutes. […] The extent of RNase H activity can be determined quantitatively by densitometric analysis of the time-dependent disappearance of the full-length RNA substrate and/or the appearance of the smaller degradation products. In this experiment, the bands corresponding to the undegraded 18 nucleotide 5′-[^32P]-RNA were quantified by densitometry, using the software UN-SCAN-IT (Silk Scientific, Orem, Utah). The IC50 values for BBNH inhibition of HIV-1 RT associated RNase H activity were calculated from plots of the residual undegraded 5′[^32P]-RNA vs. drug concentration.

Take `CC(C)(C)c1ccc(C(=O)NN=Cc2c(O)ccc3ccccc23)cc1` [BBNH, N-(4-tert-butylbenzoyl)-2-hydroxy-1-naphthaldehyde hydrazone]: the IC50 turned out to be 2.6 ± 0.5 µM in assay [1] and 3 ± 1.2 µM in assay [2].

As usually defined, the IC50 is the point on the concentration scale where inhibition reaches its midpoint.
